Laboratory results reported in patent US20110224147A1, “METHODS AND COMPOSITIONS” (Relevare Aust. Pyt. Ltd., priority 2008, published 2011).
Marks after values point to notes of the source that are not given here.

Experiments:
[1] = test system: carrageenan-induced hyperalgesia; assay: Carrageenan paw inflammation test (paw withdrawal latency, noxious heat); type: in vivo, rat; conditions: for antinociception, significance vs vehicle controls: p>0.05
Experimental: (§1) All experiments were performed on male Wistar rats, weight 170-220 g for experiments investigating sedation and antinociception using the carrageenan inflammation paradigm and weight 120-200 g for experiments evaluating sedation and antinociception using the diabetic neuropathy model. The experiments were performed in an observer-blinded fashion with parallel positive placebo (gabapentin) and negative placebo (vehicle) treatment controls. All drug solutions and vehicle were given intraperitoneally (ip) in a volume of 1.0 ml.
Two tests for antinociception were used: the carrageenan paw inflammation test; and the streptozotocin-induced diabetic neuropathy model. Inflammation of the right hind paw was induced by an intraplantar injection of carrageenan (100 μl of a 2% w/v carrageenan solution in saline). Time was allowed for paw inflammation to develop (2 hours). Paw withdrawal latencies were measured using noxious heat from an infrared beam focused onto the plantar surface of the right hind paw in unrestrained animals using apparatus from Ugo Basile (via G. Borghi 43, 21025 Comerio VA—Italy). The method used was originally described by Hargreaves et al, Pain 32:77-88, 1988.
Paw withdrawal latencies were measured at 10 min intervals before the induction of inflammation with carrageenan injection until 3 stable baseline readings were obtained (baseline readings—see FIG. 1). […] A test drug or drug combination was injected intraperitoneally and paw withdrawal values were measured at 10-minute intervals for the following 30 minutes (test drug readings—see FIG. 1).
The following drug treatments were given ip to separate groups of rats: • vehicle controls, n=63 • CNSB002 at dose range 0.5 mg/kg to 10 mg/kg alone, n=14 each • morphine at dose range 0.2 mg/kg to 3.2 mg/kg alone, n=10 each • combinations of CNSB002 at 5 mg/kg with morphine at 0.2, 0.4, 0.8, 1.6 and 3.2 mg/kg, n=10 each • gabapentin alone at 50 mg/kg, n=20 • combination of gabapentin at 50 mg/kg with morphine 3.2 mg/kg, n=20
Drug and placebo/vehicle treatments were compared statistically using ANOVA with Tukey-Kramer post hoc test.

[2] = test system: hyperalgesia caused by STZ-induced diabetic neuropathy; assay: Streptozotocin-induced diabetic neuropathy model (paw flick latency, radiant heat plantar test); type: in vivo, rat; conditions: diabetic rats
normal rats = assay: Open field activity monitor (sedation), normal rats
Experimental: as §1
(§2) Measurement of the movements of a freely moving rat in an open field activity monitor was used. […] The maximum non-sedating doses of each compound alone and in combination were first determined in normal rats and then those doses were tested for sedation in diabetic rats. This was done to be sure that there was no sedation caused by the drugs, particularly in diabetics that are known to be more susceptible to CNS depressants.
(§3) The open field activity monitor (MedAssociates Inc. St. Albans, Vt. 05478, USA) is an enclosure with a quiet and darkened environment. It contains 16 intersecting beams of infrared light. Interruptions of beams by individual rats moving around the enclosure were recorded by computer. These measurements were converted to the total rest time in seconds during a 20 min period in the apparatus. Rest times of drug-treated rats were compared with vehicle-treated controls using ANOVA with Dunnet post hoc test.
(§4) Animals naïve to drug treatment were acclimatized to the lab environment and individual rats were selected randomly from a group one at a time. They were injected (ip) with vehicle, a test drug dose or a combination of drugs in an operator-blinded fashion. Five minutes after the ip injection each rat was placed in the open field activity monitor for a 20-min period.
(§5) Groups of rats were tested with the open field activity monitor as above with the following ip treatments: • vehicle controls, n=121 experiments • CNSB002 at doses 10 and 20 mg/kg, n=20 and 10 experiments • morphine at doses 6.4 and 3.2 mg/kg, n=21 and 20 experiments • a combination of CNSB002 at 10 mg/kg with morphine at 3.2 mg/kg, n=21 experiments • a combination of CNSB002 at 5.0 mg/kg with morphine at 3.2 mg/kg, n=19 experiments • gabapentin at doses of 100 and 50 mg/kg, n=26 each experiments • a combination of GABApentin at 50 mg/kg with morphine at 3.2 mg/kg, n=19 experiments

diabetic rats = assay: Open field activity monitor (sedation), diabetic rats
Experimental: as §1, §2, §3, §4, §5
Rats were injected ip with streptozotocin (STZ; […] total dose) dissolved in 0.9% w/v sodium chloride solution. The 150 mg dose was given in two 75 mg/kg injections on consecutive days. Diabetes was confirmed one week after injection of STZ by measurement of tail vein blood glucose levels with AccuCheck Active test strips and a reflectance colorimeter (AccuCheck Glucometer, Roche). Only animals with final blood glucose levels ≧15 mM were deemed to be diabetic. The rats were retested for hyperglycaemia once per week to confirm continued high blood glucose readings. Hyperalgesia was assessed by measurement of paw flick latency using the radiant heat plantar test described previously by Hargreaves et al, 1988 supra.

[3] = morphine 3.2 mg/kg ip alone, p<0.05
[4] = gabapentin 50 mg/kg ip alone, p<0.01
[5] = CNSB002 10 mg/kg ip alone, p<0.01
[6] = male, Wistar, rat, in vivo, ip, 10 mg/kg, 20 min

With `CN1CC[C@]23c4c5ccc(O)c4O[C@H]2[C@@H](O)C=C[C@H]3[C@H]1C5` [morphine] the “reversal of carrageenan-induced hyperalgesia” value ([1]; morphine 3.2 mg/kg ip alone) was 24%, the “antinociception, significance vs vehicle controls” value ([1]; morphine 0.2-3.2 mg/kg ip alone) was “caused no significant antinociception” and the “antinociception, significance vs vehicle controls” value [2, 3] was “significant antinociceptive effect”. The reversal of hyperalgesia [2, 3] was 30%, the “antinociception, significance vs vehicle controls” value ([2]; morphine alone ip, doses below the highest dose 3.2 mg/kg, p>0.05) was “No dose of morphine alone caused significant antinociception” and the “sedation vs vehicle controls” value (normal rats; normal rats, doses of morphine up to 6.4 mg/kg ip) was “sedation was not caused”. The “total rest time during a 20 min period (mean)” value (normal rats; normal rats, morphine 3.2 mg/kg ip alone, Table 1B) was 961.0 s, the “sedation vs vehicle controls” value (normal rats; normal rats, morphine 3.2 mg/kg ip alone, p>0.05 unpaired t test) was “did not cause sedation” and the “total rest time during a 20 min period (mean)” value (diabetic rats; diabetic rats, morphine 3.2 mg/kg ip alone, Table 2A) was 943.6 s. The “sedation vs vehicle controls” value (diabetic rats; diabetic rats, morphine 3.2 mg/kg ip alone, p>0.05) was “not sedating”, the “total rest time during a 20 min period (mean)” value (diabetic rats; diabetic rats, morphine 6.4 mg/kg ip alone, Table 2B) was 972.6* seconds and the “sedation vs vehicle controls” value (diabetic rats; diabetic rats, morphine 6.4 mg/kg ip alone, p<0.01) was “caused sedation”.
In the case of `NCC1(CC(=O)O)CCCCC1` [gabapentin], the “antinociception, significance vs vehicle controls” value ([1]; gabapentin 50 mg/kg ip alone) is reported as “No dose of gabapentin or CNSB002 administered alone caused statistically-significant antinociception”, the “antinociception, significance vs vehicle controls” value [2, 4] is reported as “equally significant antinociception” and the reversal of hyperalgesia [2, 4] is reported as 26%. The “total rest time during a 20 min period (mean)” value (normal rats; normal rats, gabapentin 50 mg/kg ip alone, Table 1C) was 753.0 s, the “sedation vs vehicle controls” value (normal rats; normal rats, gabapentin 50 mg/kg ip alone, p>0.05) was “did not cause sedation” and the “total rest time during a 20 min period (mean)” value (normal rats; normal rats, gabapentin 100 mg/kg ip alone, Table 1C) was 881.6* seconds. The “sedation vs vehicle controls” value (normal rats; normal rats, gabapentin 100 mg/kg ip alone, p<0.01) was “caused significant sedation”, the “total rest time during a 20 min period (mean)” value (diabetic rats; diabetic rats, gabapentin 50 mg/kg ip alone, Table 2A) was 985.8 s and the “sedation vs vehicle controls” value (diabetic rats; diabetic rats, gabapentin 50 mg/kg ip alone, p>0.05) was “not sedating”. The “total rest time during a 20 min period (mean)” value (diabetic rats; diabetic rats, gabapentin 100 mg/kg ip alone, Table 2A) was 941.2 s and the “sedation vs vehicle controls” value (diabetic rats; diabetic rats, gabapentin 100 mg/kg ip alone, p>0.05) was “not sedating”.
For `CC(C)(C)c1cc(CN2CCN(CC(O)c3ccc(Cl)cc3)CC2)cc(C(C)(C)C)c1O` (stereo not shown) [CNSB002, 1-(2-(4-chlorophenyl)-2-hydroxy)ethyl-4-(3,5-bis(1,1-dimethyl)-4-hydroxyphenyl)methylpiperazine], the “reversal of carrageenan-induced hyperalgesia” value ([1]; CNSB002 5 mg/kg ip alone) was 35%, the “reversal of carrageenan-induced hyperalgesia” value ([1]; CNSB002 10 mg/kg ip alone) was 35% and the “antinociception, significance vs vehicle controls” value ([1]; CNSB002 0.5-10 mg/kg ip alone) was “No dose of gabapentin or CNSB002 administered alone caused statistically-significant antinociception”. The “antinociception compared with CNSB002 at 0.5 mg/kg” value ([1]; CNSB002 5 or 10 mg/kg ip alone) was “significantly greater”, the “antinociception compared with CNSB002 at 0.5, 1.0 and 2.5 mg/kg” value ([2]; CNSB002 10 mg/kg ip alone, not vs 5 mg/kg) was “significantly greater” and the “antinociception, significance vs vehicle controls” value [2, 5] was “significant antinociceptive effect”. The reversal of hyperalgesia [2, 5] was 26%, the “antinociception, significance vs vehicle controls” value ([2]; CNSB002 doses other than 10 mg/kg (0.5-5 mg/kg) ip alone) was “No other doses of CNSB002 administered alone caused significant antinociception” and the “total rest time during a 20 min period (mean)” value (normal rats; [6]) was 851.2 s. For the same compound, the “total rest time during a 20 min period (mean)” value (normal rats; male, Wistar, rat, in vivo, ip, 20 mg/kg, 20 min) was 1001.2* seconds, the “sedation vs vehicle controls” value (normal rats; rat, in vivo, ip, 10 mg/kg) was “did not cause sedation” and the “sedation vs vehicle controls” value (normal rats; rat, in vivo, ip, 20 mg/kg) was “sedating”. The “total rest time during a 20 min period (mean)” value (diabetic rats; [6]) was 1005.6 s and the “sedation vs vehicle controls” value (diabetic rats; rat, in vivo, ip, 10 mg/kg) was “not sedating”.
